Consider three compounds from article PMC6672008, “Small molecule degraders of the hepatitis C virus protease reduce susceptibility to resistance mutations” (Nature Communications, 2019).

Where “and” joins values, the source holds several entries; their conditions need not be identical. Equal values may be shown once. Entries after “also recorded” stand apart in the source; their conditions may differ. Read-outs that look alike come from different tables or passages of the source. Where only a bound is given, the exact number is not on record here.

In one series the test system is HCV-JFH1-ad. The series can be described thus: microbe, parasite or virus in culture. It counts as cell-based, hepatitis C virus.
The target in a further series is CRBN (Homo sapiens, UniProt Q96SW2). The series can be described thus: Competitive displacement assay for cellular CRBN engagement (rescue of dBET6-mediated BRD4BD2-eGFP degradation). In kind it is cell-based. To be noted: co-treated with 100 nM dBET6, 5 h.
Series [1] can be described thus: Cytotoxicity assay (CellTiter-Glo, 24 h). In kind it is cell-based. As to conditions: human, CC50 (50% loss of viability).
The next series has as its target HCV NS3 (Hepatitis C virus genotype 2a, UniProt Q99IB8). It counts as cell-based. To be noted: percentage of DMSO-treated control, 1000 nM (legend; picture prints 500nM).
Series [2] deals with HCV NS3-eGFP protein fusion (Hepatitis C virus genotype 2a, UniProt Q99IB8). It counts as cell-based. To be noted: for NS3-eGFP/mCherry ratio normalized to DMSO, average / NS3-eGFP/mCherry ratio normalized to DMSO, single experiments: Supplementary Fig. 4c; for DC50: 4 h treatment.
The target in the next series is DDB1∆B-CRBN (Homo sapiens, UniProt Q96SW2). The series can be described thus: CRBN-binding assay (fluorescence polarization, displacement of Atto565-lenalidomide). As to conditions: fluorescence polarization competition. How it is done: Measurement of compounds binding to CRBN was performed by fluorescence polarization. […] Compounds were dispensed using a D300e Digital Dispenser (HP), normalized to 1% DMSO, and incubated for 60 min at room temperature. The change in fluorescence polarization was monitored using a PHERAstar FS microplate reader (BMG Labtech) for 20 min in 200 s cycles. […]
Increasing concentrations of compounds were titrated to preformed DDB1∆B-CRBN-lenalidomideAtto565 complex. Data are presented as means normalized to DMSO ± standard deviation of n = 4 technical replicates. […]
d Measurement of NS3/4A protease inhibition in vitro. Cell lysates containing the endogenous NS3/4A protease were prepared from cells stably expressing an HCV […]
subgenomic replicon. […]

Setting [3] is: Hepatitis C virus, Huh7.5, read-out: antiviral IC50 (50% reduction in viral titers), single experiments, Huh7.5, MOI 0.1, treated 24 to 48 h post-infection, individual experiments.
[4] abbreviates: read-out: antiviral IC50 (50% reduction in viral titers), single experiments, Huh7.5, MOI 0.1, treated 24 to 48 h post-infection, individual experiments.
Setting [5] is: average value reported, averaged from n = 2.
The mark [6] stands for this setting: single experiments, individual experiments.
Where [7] appears, read: Huh7.5 CRBN-/-, HCV-JFH1-ad MOI 0.1, 24 to 48 h post-infection.
The mark [8] stands for this setting: wildtype Huh7.5, HCV-JFH1-ad MOI 0.1, 24 to 48 h post-infection.
Where [9] appears, read: 500 nM compound + 500 nM lenalidomide, 4 h.
Where [10] appears, read: 500 nM compound + 5000 nM lenalidomide, 4 h.
The mark [11] stands for this setting: read-out: NS3-eGFP degradation DC50, average value reported, average of n ≥ 2 independent experiments.
Where [12] appears, read: read-out: NS3-eGFP degradation DC50, single experiments, individual experiments (source data).

As to `CCC[C@H](NC(=O)[C@@H]1[C@H]2CCC[C@H]2CN1C(=O)[C@@H](NC(=O)[C@@H](NC(=O)c1cnc(C(=O)NCCCCCCNc2cccc3c2CN(C2CCC(=O)NC2=O)C3=O)cn1)C1CCCCC1)C(C)(C)C)C(=O)C(=O)NC1CC1` (stereo partly shown) [DGY-03-081], the IC50 in the series with HCV-JFH1-ad (Hepatitis C virus, Huh7.5, read-out: antiviral IC50 (50% reduction in viral titers), average value reported, Huh7.5, MOI 0.1, treated 24 to 48 h post-infection, average of n ≥ 2 experiments) was found to be 3070 nM; in the series with HCV-JFH1-ad (setting [3]), 3300 nM; in the series on HCV-JFH1-ad (setting [4]), 2840 nM. The EC50 on CRBN came out at 576 nM. For the same compound, the CC50 at 24 h in series [1] (setting [5]) and in series [1] (setting [6]) was above 40 µM in each case. In addition, on HCV NS3 (setting [7]), the “relative NS3 levels (normalized to GAPDH), CRBN-/- cells, average” value is reported as 101%. Moreover, the “relative NS3 levels (normalized to GAPDH), wildtype cells, average” value on HCV NS3 (setting [8]) turned out to be 50%. In addition, the “NS3-eGFP/mCherry ratio normalized to DMSO, average” value in series [2] (setting [9]) amounted to 0.71; in series [2] (setting [10]), 0.84; in series [2] (500 nM compound + DMSO, 4 h) it was 0.65. Moreover, the “NS3-eGFP/mCherry ratio normalized to DMSO, single experiments” value was 0.72 and 0.71 in series [2] (setting [9]); 0.85 and 0.83 in series [2] (setting [10]); 0.65 and 0.64 in series [2] (500 nM compound + DMSO, 4 h). Further, the DC50 in series [2] (setting [11]) is 669 nM; in series [2] (setting [12]) it was 642 nM and 695 nM.
Turning to `CCC[C@H](NC(=O)[C@@H]1[C@H]2CCC[C@H]2CN1C(=O)[C@@H](NC(=O)[C@@H](NC(=O)c1cnc(C(=O)NCCOCCOCCNc2cccc3c2C(=O)N(C2CCC(=O)N(C)C2=O)C3=O)cn1)C1CCCCC1)C(C)(C)C)C(=O)C(=O)NC1CC1` (stereo partly shown) [DGY-04-035-BUMP], the CC50 at 24 h in series [1] (setting [5]) and in series [1] (setting [6]) was above 40 µM throughout. The “NS3-eGFP/mCherry ratio normalized to DMSO, average” value in series [2] (setting [9]) is listed as 0.98; in series [2] (setting [10]), 0.98; in series [2] (500 nM compound + DMSO, 4 h), 0.98. The “NS3-eGFP/mCherry ratio normalized to DMSO, single experiments” value was 0.98 and 0.99 in series [2] (setting [9]); 1.00 and 0.97 in series [2] (setting [10]); 0.98 and 0.99 in series [2] (500 nM compound + DMSO, 4 h). For the same compound, the “degradation of HCV NS3 in the transient assay (in words)” value in series [2] (4 h, increasing concentrations) is reported as “neither compound induced degradation of HCV NS3”. The “binding to CRBN (in words)” value on DDB1∆B-CRBN is recorded as “Neither DGY-04-035-BUMP nor DGY-08-097-BUMP exhibit detectable binding to CRBN; also recorded: loss of CRBN-binding”.
As to `CCC[C@H](NC(=O)[C@@H]1[C@H]2CCC[C@H]2CN1C(=O)[C@@H](NC(=O)[C@@H](NC(=O)c1cnc(C(=O)NCCOCCOCCNc2cccc3c2C(=O)N(C2CCC(=O)NC2=O)C3=O)cn1)C1CCCCC1)C(C)(C)C)C(=O)C(=O)NC1CC1` (stereo partly shown) [DGY-04-035], the IC50 with HCV-JFH1-ad (setting [3]) is 2160 nM; with HCV-JFH1-ad (setting [4]), 2650 nM and 3950 nM. Further, the EC50 at CRBN was determined as 641 nM. Moreover, the CC50 at 24 h in series [1] (setting [5]) and in series [1] (setting [6]) was above 40 µM each time. For the same compound, the “relative NS3 levels (normalized to GAPDH), CRBN-/- cells, average” value on HCV NS3 (setting [7]) was 87%. Besides, the “relative NS3 levels (normalized to GAPDH), CRBN-/- cells, single experiments” value on HCV NS3 (setting [7]) is 107% and 74% and 80%. In addition, the “relative NS3 levels (normalized to GAPDH), wildtype cells, average” value on HCV NS3 (setting [8]) amounted to 48%. Besides, the “relative NS3 levels (normalized to GAPDH), wildtype cells, single experiments” value on HCV NS3 (setting [8]) was 54% and 46% and 44%. Moreover, the “NS3-eGFP/mCherry ratio normalized to DMSO, average” value in series [2] (setting [9]) is listed as 0.66; in series [2] (setting [10]) it was 0.86; in series [2] (500 nM compound + DMSO, 4 h), 0.54. Also, the “NS3-eGFP/mCherry ratio normalized to DMSO, single experiments” value is 0.67 and 0.64 in series [2] (setting [9]); 0.87 and 0.85 in series [2] (setting [10]); 0.54 and 0.53 in series [2] (500 nM compound + DMSO, 4 h). The DC50 in series [2] (setting [11]) was 489 nM; in series [2] (setting [12]), 444 nM and 438 nM and 379 nM and 650 nM and 532 nM.

What is called IC50 is the concentration at which inhibition is half-maximal. As a reminder, the EC50 is the concentration needed to bring the measured effect to its halfway point. As a reminder, the CC50 is the concentration that lowers cell viability or growth by half. One may read the DC50 as the concentration at which degradation of the target reaches its halfway point.
